The results in this text go back to PubChem BioAssay AID2305 (GlaxoSmithKline (GSK), 2010).

This test concerns P. falciparum 3D7 growth, pLDH absorbance. Put plainly: P. falciparum 3D7 growth inhibition, dose response, strain 3D7 (AID 2305).

“And” between values parts separate entries of the source, which are not always exact repeats. Equal entries are not always repeated.

The term IC50 denotes the point on the concentration scale where inhibition reaches its midpoint. In turn, `CCOc1ccc(C2CCN(CCCCNC(=O)c3ccc(NC(=O)c4ccc(Cl)cc4)cc3)CC2)c(OCC)c1` gave an IC50 of 680 nM. For `O=C(NCCN1CCCC1)c1cc(-c2ccc(Cl)c(O)c2)c(-c2ccncc2)o1`, the concentration for half-maximal inhibition (IC50) came to 1630 nM. `O=C(Nc1ccc(OC2CCN(Cc3ccc(F)cc3)C2)c(Cl)c1)c1ccccc1` (centres undefined) gave a concentration for half-maximal inhibition (IC50) of 790 nM. The result for `Nc1nc(NCC2CCC(CNS(=O)(=O)c3cccc4ccccc34)CC2)nc2ccccc12` (centres undefined) reads 800 nM; that for `CS(=O)(=O)c1ccc(CCNCc2ccc(-c3ccc(CN(C(=O)c4ccco4)C4CCN(Cc5ccccc5)CC4)cc3)nc2)cc1`, 880 nM. Turning to `Cc1cc(NN=Cc2ccccc2[N+](=O)[O-])c2cc(F)ccc2n1`, the concentration for half-maximal inhibition (IC50) was found to be 660 nM. For `COCCN(C)CCCOc1cc2c(cc1OC)ncn2-c1cc(OCc2ccccc2C(F)(F)F)c(C(N)=O)s1`, the IC50 was 710 nM. For `COc1ccc2nccc([C@@H](O)CN3CC[C@H](NCc4nc5c(cc4Cl)OCC(=O)N5)[C@H](F)C3)c2c1`, the concentration for half-maximal inhibition (IC50) stood at 1320 nM.

`COc1cc2nccc(Nc3ccc(NC(=O)c4ccc(C)cc4)c(O)c3)c2cc1OC` came in with a half-maximal inhibitory concentration (IC50) of 170 nM. In the case of `Cc1ccccc1CNc1noc(-c2c(-c3ccccc3)noc2C)n1`, the 50% inhibitory concentration (IC50) came to 900 nM. `CC(C)Oc1cc2c(cc1NS(=O)(=O)c1ccc(-c3cccs3)cc1)CCN(C)CC2` had an IC50 of 960 nM. With `O=C(C=Cc1ccc(Cl)c(Cl)c1)NCCCCCN1CCCC(CCCNC(=O)c2ccc3c(c2)OCO3)C1` (centres undefined), the 50% inhibitory concentration (IC50) is 1220 nM. Compound `COc1ccc2nccc([C@@H](O)CN3CCC(NCc4cc5cccc(O)c5c(=O)[nH]4)CC3)c2c1` gave a half-maximal inhibitory concentration (IC50) of 390 nM. The result for `CN1CCN(C(C(=O)NCc2cc(Cl)cc(Cl)c2)c2ccc(NC(=O)Nc3ccccc3)cc2)CC1` (centres undefined) reads 690 nM; that for `O=C(Nc1ccc(Cl)cc1F)N[C@H]1CCN(CCCCCNC(=O)[C@@H]2C[C@H]2c2ccc(Cl)c(Cl)c2)C1`, 1090 nM. `COc1ccc(NC(=O)[C@H](Cc2ccccc2)Nc2cc(C)nc(NCCc3ccccc3OC)n2)cc1` displayed a 50% inhibitory concentration (IC50) of 530 nM. `CCCCC(=O)Nc1ccc(Nc2nc(C)cc(N3CCCC3)n2)cc1` had a 50% inhibitory concentration (IC50) of 1060 nM. For the compound `CCOC(=O)c1c(C)n(C2CCCCC2)c2cc(Br)c(O)cc12`, the IC50 was determined as 820 nM. The compound `CC(C)(CNCc1cc(Cl)cc(Cl)c1)c1nc(-c2ccc(Cl)c(O)c2)c(-c2ccnc(N)n2)[nH]1` returned a 50% inhibitory concentration (IC50) of 1010 nM. For `COc1ccc2ncc(F)c(CCN3C[C@H](CNCc4ccccc4)[C@H](O)C3)c2n1`, the IC50 is 910 nM. The compound `Cc1cccc(CNc2nccc3[nH]c4ccccc4c23)c1` showed an IC50 of 1900 nM. Under `CN1CCN(c2ccnc3ccc(NC(=O)Nc4ccc(Br)cc4)cc23)CC1` stands 90 nM. The compound `COc1ccc(C2CC(c3ccccc3)=NN2C(=O)c2ccc(Br)o2)cc1` (centres undefined) came in with a concentration for half-maximal inhibition (IC50) of 320 nM. Compound `CCn1cc2c3c(cc(C(=O)N[C@@H](Cc4ccccc4)[C@H](O)CNC4CCOCC4)cc31)N(C)S(=O)(=O)CC2` returned an IC50 of 210 nM. `CN(c1cc(NC(=O)c2ccc(F)cc2)ccn1)C1CCN(Cc2cccc(O)c2)CC1` registered a 50% inhibitory concentration (IC50) of 920 nM. Under `COc1ccc2c(c1)S(=O)(=O)N=C(N1CCCC1c1ccc(Cl)c(Cl)c1)N2C` (centres undefined) stands 1280 nM; under `CCOc1ccccc1CNc1nccc(NCc2ccccc2OC)n1`, 1490 nM. The result for `O=[N+]([O-])c1ccc(Nc2nc(NN=Cc3ccc(-c4ccc([N+](=O)[O-])cc4)o3)nc(Nc3ccccc3)n2)cc1` reads 640 nM; that for `O=C(Nc1ccc(Cl)cc1)N(CC1C[C@H]2CC[C@@H](C1)N2Cc1ccc(C(F)(F)F)cc1)c1ccc(N2CCOCC2)c(F)c1` (some centres undefined), 1070 nM. The compound `CCC(COCc1ccc(Cl)cc1)N(C)CCN(C)C(CC)COCc1ccc(Cl)cc1` (centres undefined) yielded a half-inhibitory concentration (IC50) of 1060 nM. Consider `CCOC(=O)C1=C(C)N=c2sc(=Cc3cc(Cl)ccc3O)c(=O)n2C1c1ccc2c(c1)OCO2` (centres undefined), for which the half-maximal inhibitory concentration (IC50) is 710 nM.

Turning to `CCNc1cc(C(=O)N[C@@H](Cc2ccccc2)[C@H](O)CN[C@@H](C)c2ccccc2)cc(N2CCCC2=O)c1`, the IC50 was 670 nM. As to `Nc1nc(N)c2c(ccc3c2ccn3C2C=CCCC2)n1` (centres undefined), the concentration for half-maximal inhibition (IC50) is 130 nM. For `CCc1ccc(C2CCN(CCCCNC(=O)c3ccc(NC(=O)c4ccc(Cl)cc4)cc3)CC2)c(OC)c1`, the half-inhibitory concentration (IC50) is 790 nM. Take `c1cc(CNCCc2ccncc2)cc(-c2ccc(-c3nc4ccccc4[nH]3)cc2)c1`: the IC50 came to 150 nM.

In turn, `CCOc1cc(C(=O)NCCc2ccc(Cl)c(Cl)c2)ccc1-c1nc2ccc(Cl)cc2[nH]1` registered a half-maximal inhibitory concentration (IC50) of 890 nM.

For `O=C1C(=Cc2cc(Cc3ccccc3)ccc2O)SC(=S)N1Cc1ccccc1`, the IC50 came out at 940 nM. As for `O=C(CCc1ccc(Cl)cc1Cl)NC1CCC(CN2CCC(c3c[nH]c4ccccc34)CC2)CC1` (centres undefined), the 50% inhibitory concentration (IC50) is 900 nM and 220 nM. The result for `O=C(/C=C/c1ccc(Cl)c(Cl)c1)NCCCCCN1CCCN(C(=O)Nc2ccc(Br)cc2)CC1` reads 780 nM; that for `O=C(c1ccc(Cl)c(Cl)c1)N1CCc2c([nH]c3ccccc23)C1CN1CCCC1` (centres undefined), 830 nM. Compound `O=C(Nc1ccc(OC(F)(F)F)cc1)Nc1ccc([N+](=O)[O-])cc1` displayed an IC50 of 880 nM. `Cc1cccc2[nH]c(-c3ccc(-c4ccc(CN5CCCC(N)C5)cc4)cc3)nc12` (centres undefined) displayed an IC50 of 350 nM. In turn, `CC1(C)CNCc2cc(NC(=O)/C=C/c3ccc(Cl)cc3)ccc21` registered a half-maximal inhibitory concentration (IC50) of 1180 nM.

On to `C1=C(c2c[nH]c3ccccc23)CCN(Cc2ccccc2)C1`, for which the IC50 was found to be 1040 nM. `CC(C)C[C@@H](/C=N/NC(N)=O)NC(=O)[C@H](CC(C)C)NC(=O)[C@H](CC(C)C)NC(=O)OCc1ccccc1` gave an IC50 of 150 nM.

In turn, `N#Cc1ccc(CN2CCC(Oc3ccc(NC(=O)c4cccs4)cc3)C2)cc1` (centres undefined) returned an IC50 of 950 nM. With `N#Cc1ccc(CN2CCCN(c3ccc(NC(=O)c4ccc(F)cc4)cc3)CC2)cc1`, the half-maximal inhibitory concentration (IC50) is 1280 nM. Under `CCOC(=O)c1[nH]c(-c2cc(Cl)nc(Cl)c2)nc1NC(=S)NCc1ccc(NS(C)(=O)=O)cc1` stands 890 nM; under `O=C(/C=C/c1ccc(Cl)c(Cl)c1)NCCCCCN1CCC(NC(=O)c2cccc(Cl)c2)CC1`, 690 nM. For the compound `O=S(=O)(NCCN1CCCC1)c1ccc(-c2cccc(CNC3Cc4ccccc4C3)c2)cc1F`, the IC50 amounted to 1020 nM. Compound `O=C(/C=C/c1ccsc1)N1CCC(CCN2CCC(c3c[nH]c4ccccc34)CC2)CC1` came in with an IC50 of 910 nM. Under `CN(C)CCNCc1cccc(-c2ccc3c(Nc4cc(O)c(Cl)cc4F)ccnc3c2)c1` stands 550 nM; under `O=C(Nc1ccc2ccccc2c1)N1CCC(NCc2cccc([N+](=O)[O-])c2)CC1`, 860 nM; under `FC(F)(F)COc1ccc2ccccc2c1CCNCCCCNCCc1c(OCC(F)(F)F)ccc2ccccc12`, 430 nM.

`O=C(NCCCCN1CCC(O)(c2ccc3c(c2)OCO3)CC1)c1ccc(NC(=O)c2ccc(Cl)cc2)cc1`: the 50% inhibitory concentration (IC50) was 1180 nM. `COc1cccc(C(=O)Nc2nc3c(s2)CCN(Cc2ccccc2N2CCNCC2)CC3)c1`: the IC50 came to 890 nM.

As for `Cc1ccc(S(=O)(=O)N2CCN(C(=O)c3cc(-c4cccs4)[nH]n3)CC2)c(C)c1`, the half-inhibitory concentration (IC50) turned out to be 870 nM. In turn, `COc1ccc2nccc([C@@H](O)CN3CCC(NC(=O)c4ccc(Oc5ccccc5)cc4)CC3)c2c1` came in with an IC50 of 1380 nM.

In the case of `COc1ccc(NC(=O)c2cn(-c3ccc(C(C)(C)C)cc3)nc2C)cc1N1CCN(C)CC1`, the IC50 is 950 nM. Take `C[C@H](CNc1ccnc(Nc2ccc3[nH]c(=O)[nH]c3c2)n1)c1ccccc1`: the half-maximal inhibitory concentration (IC50) came to 1310 nM. Compound `Cc1cnc(-c2ccc(NC(=O)N3CCc4cc5nccc(N6CCN7CCC[C@H]7C6)c5cc43)c3ccccc23)o1` gave a half-inhibitory concentration (IC50) of 860 nM.

Compound `CCc1cn(CC(=O)N(CCOc2ccc(-c3ccc(C(F)(F)F)cc3)cc2)CCN(CC)CC)c(SCc2ccc(F)cc2)nc1=O` had an IC50 of 780 nM. The compound `CC(=O)N/N=C/[C@H](CCc1ccccc1)NC(=O)[C@H](CC(C)C)NC(=O)c1ccc(F)cc1` came in with an IC50 of 690 nM. `COc1ccc(CNc2nc(NCc3ccc(C(F)(F)F)cc3)c3cc(OC)c(OC)cc3n2)cc1OC` registered an IC50 of 210 nM. In the case of `CCOC(=O)c1nc2ccc(SC3CCCCC3)cn2c1Br`, the IC50 stood at 1060 nM. `COc1ccccc1N1CCN(CCCCNC(=O)c2ccc(NC(=O)c3ccc(C(F)(F)F)cc3)cc2)CC1`: the IC50 worked out at 300 nM. With `COc1cc2nc(N3CCC(CNC(=O)c4ccc(-c5ccc(C(=O)N(C)C)cc5C)cc4)CC3)nc(N3CCN(C)CC3)c2cc1OC`, the IC50 came to 1230 nM.

In the case of `CN(CCON1C(N)=NC(N)=NC1(C)C)c1ccccc1`, the 50% inhibitory concentration (IC50) was determined as 20 nM. `Cc1nccc2c(NC(=O)N[C@@H]3CCN(c4ncc(C(F)(F)F)cc4Br)C3)cccc12`: the IC50 was determined as 360 nM. The compound `COc1ccc(CCNCCCCNCCc2ccc(OC)c3ccccc23)c2ccccc12` came in with a concentration for half-maximal inhibition (IC50) of 450 nM. For the compound `COc1ccc(-c2cccc(NC(=O)c3cccc(C#N)c3)c2)cc1CN1CCC(O)CC1`, the IC50 was found to be 990 nM. The result for `CCNc1cc(C(=O)N[C@@H](Cc2ccccc2)[C@H](O)CNC(C)C)cc(N2CC(c3ccccc3)CCS2(=O)=O)c1` (some centres undefined) reads 410 nM; that for `Cc1ccc(C(=O)Nc2ccc(C)c(OC3CCN(Cc4ccco4)C3)c2)cc1` (centres undefined), 970 nM; that for `CCOc1ccc2nc3cc([N+](=O)[O-])ccc3c(N)c2c1`, 140 nM. Turning to `CN1CCN(c2ccc(Nc3nccc(-c4cnn5ncccc45)n3)cc2Cl)CC1`, the IC50 is 830 nM. Under `COc1ccc(CN2CCCC(OC(c3ccc(F)cc3)c3ccc(F)cc3)C2)c(O)c1` (centres undefined) stands 610 nM; under `COc1ccc2nccc(C(=O)NC3CCC(CCN4CCc5cc(C#N)ccc5C4)CC3)c2c1` (centres undefined), 1160 nM; under `CSc1cccc(Nc2nc3ccc(S(=O)(=O)NCC(C)C)cc3n2C(C)C(C)C)c1` (centres undefined), 820 nM. In turn, `Cc1ccc2[nH]c3ccccc3c(=O)c2c1` showed an IC50 of 860 nM.

`Cc1cc(NC2CCN(Cc3ccccc3)CC2)nc(NCCCCc2ccccc2)n1` yielded an IC50 of 380 nM. `Cc1cccc(-c2cccc3c(NC(=O)N4CCc5cc6nccc(N7CCN8CCC[C@H]8C7)c6cc54)cccc23)n1` came in with an IC50 of 920 nM. With `Nc1nccc2ccc(-c3cccnc3)cc12`, the IC50 turned out to be 420 nM. The result for `OCC1CCN(Cc2cccc(-c3cccc(-c4nc5ccc(C(F)(F)F)cc5[nH]4)c3)c2)CC1` reads 510 nM; that for `c1cc(C2=N[C@H]3CCCC[C@@H]3N2)ccc1OCCCOc1ccc(C2=N[C@@H]3CCCC[C@H]3N2)cc1`, 730 nM.
